Consider 8 molecules from EP1911452A1, “Silicon-derivates for PET-Imaging” (Bayer Schering Pharma Aktiengesellschaft, priority 2006, dated 2008).

The nature of this data set: Hydrolytic stability: time dependent degree of hydrolysis of the 19F fluorosilane to the hydroxy compound at physiological pH (7.0). The data set is classed as physicochemical. The note with it: ratio of hydrolytic halflife to radioactive halflife of the 18-F isotope (1.83 hours). As for the experimental part: The time dependent degree of hydrolysis of compounds of formula I in which X is a fluorine atom of isotope 19 to compounds of formula I in which X is a hydroxy group was determined at physiological pH (7.0). From the kinetics the hydrolytic halflife (t1/2) measured in hours [h] of compounds of formula I in which X is a fluorine atom of isotope 19 were calculated (Table 1, column 2).
The ratio of the hydrolytic halflifes of compounds of formula I in which X is a fluorine atom of isotope 19 and the radioactive halflife of the 18-F isotope (1.83 hours) is defined as relative stability (Table 1, column 3).
After 6 hours 90% of the 18-F isotope have been decayed.
Compounds of formula I in which X is a fluorine atom of isotope 18 are considered as useful for PET applications if the relative stability of their analogs bearing a fluorine atom of isotope 19 exceed a factor of four and if at least 50% of these compounds remain intact after 6 hours under hydrolytic conditions at pH 7.

For `CC(C)[Si](F)(c1ccc(COC2CCCCO2)cc1)C(C)C` (racemic) [Compound 3a - F, (RS)-Fluoro-diisopropyl-[4-(tetrahydro-pyran-2-yloxymethyl)-phenyl]-silane], the rel. stability came out at 27.0. Under `CC(C)[Si](F)(c1cccc(CCOC2CCCCO2)c1)C(C)C` (racemic) [Compound 3e - F, (RS)-Fluoro-diisopropyl-{3-[2-(tetrahydro-pyran-2-yloxy)-ethyl]-phenyl}-silane] stands over 54.6; under `F[Si](c1ccccc1)(c1ccccc1)c1ccc(CCOC2CCCCO2)cc1` (racemic) [Compound 3f - F, (RS)-Fluoro-diphenyl-{4-[2-(tetrahydro-pyran-2-yloxy)-ethyl]-phenyl}-silane], 0.04; under `CC(C)C[Si](F)(CC(C)C)c1ccc(COC2CCCCO2)cc1` (racemic) [Compound 3g - F, (RS)-Fluoro-diisobutyl-[4-(tetrahydro-pyran-2-yloxymethyl)-phenyl]-silane], 4.5. As for `CC(C)[Si](F)(c1ccc(C(=O)O)cc1)C(C)C` [Compound 5a - F, 4-(Fluoro-diisopropyl-silanyl)-benzoic acid], the figure is 6.1; as for `CC(C)C[Si](F)(CC(C)C)c1ccc(C(=O)O)cc1` [Compound 5g - F, 4-(Fluoro-diisobutyl-silanyl)-benzoic acid], 1.9; as for `CC(C)C[Si](F)(CC(C)C)c1ccc(CC(=O)O)cc1` [Compound 5h - F, [4-(Fluoro-diisobutyl-silanyl)-phenyl]-acetic acid], 4.8. For the molecule `CC(C)C[Si](F)(CCCCC(=O)Nc1ccccc1)CC(C)C` [Compound 30a - 1F, 5-(Fluoro-diisobutyl-silanyl)-pentanoic acid phenylamide], the rel. stability was 7.5.
